Consider 27 compounds from patent publication US20260317312A1, “ISOXAZOLIDINES AS RIPK1 INHIBITORS AND USE THEREOF” (GENZYME CORPORATION, priority 2023, published 2026).

Each structure is given as a SMILES string.

Test [1] has as its target T1, hRIPK1 (aa 1-375) fusion protein (Homo sapiens, UniProt Q13546).
T1 construct: hRIPK1 (aa 1-375) fusion protein
T1 sequence (Q13546 1-375): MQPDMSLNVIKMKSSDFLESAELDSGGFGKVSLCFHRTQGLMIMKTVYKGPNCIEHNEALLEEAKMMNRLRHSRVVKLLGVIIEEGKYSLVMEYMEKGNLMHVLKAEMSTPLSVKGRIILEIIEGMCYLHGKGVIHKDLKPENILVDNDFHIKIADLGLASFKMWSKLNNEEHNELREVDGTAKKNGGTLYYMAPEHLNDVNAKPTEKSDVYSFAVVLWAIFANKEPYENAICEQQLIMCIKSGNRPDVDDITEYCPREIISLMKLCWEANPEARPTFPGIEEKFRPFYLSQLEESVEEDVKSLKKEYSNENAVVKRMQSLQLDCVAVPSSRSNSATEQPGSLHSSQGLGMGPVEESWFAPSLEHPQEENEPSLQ
Kind of test: Receptor-Interacting Protein Kinase 1 inhibition, ADP Glo assay (conversion of ATP to ADP due to autophosphorylation). Type of test: biochemical. The settings on record: ATP 50 μM, 30 min preincubation, 240 min incubation, room temperature, DMSO 1%. The gist of the method:
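hRIPK1 (aa 1-375) fusion protein (3.6 μg/ml final) was preincubated 30 min at rt with compound (33300-1.69 nM, 1% DMSO), then 50 μM ATP was added for 240 min at rt. ADP from autophosphorylation was measured by ADP-Glo luminescence and curves fitted by nonlinear regression.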

Test [2] relates to U937 cells. The test is described as follows: Cellular assay in U937 cells to measure activity of RIPK1-inhibitors on cell death (necroptosis). Format: cell-based. The settings on record: overnight (18 to 24 hrs), 37° C., MTS readout.
[3] abbreviates: TNFα/zVAD.fmk induced cell death (necroptosis).
[4] abbreviates: Homo sapiens, U-937, TNFα/zVAD.fmk induced cell death (necroptosis).

As to `N#Cc1cc(F)cc([C@@H]2CCON2C(=O)C2CCC(COc3cc(C(N)=O)ncn3)C2)c1` (single isomer, unassigned; stereoisomer 3) [Compound 117], the IC50 – broadly, the concentration needed to halve the response being measured – in test [1] came to 50 nM; in test [2] (setting [3]), 675 nM.
Take `NC(=O)c1cc(OCC2CCC(C(=O)N3OCC[C@H]3c3cc(F)cc(F)c3)C2)ncn1` (single isomer, unassigned; stereoisomer 4) [Compound 121]: the IC50 in test [1] came to 30 nM; in test [2] (setting [3]) it was 755 nM.
For `NC(=O)c1cc(OCC2CCCC(C(=O)N3OCC[C@H]3c3cc(F)cc(F)c3)CC2)ncn1` (single isomer, unassigned; stereoisomer 3) [Compound 124], the IC50 in test [1] is 21 nM; in test [2] (setting [3]), 81 nM.
Turning to `N#Cc1cc(O[C@H]2C[C@H](C(=O)N3OCC[C@H]3c3cc(F)cc(F)c3)C2)ccc1F` [Compound 51, trans-5-(3-((S)-3-(3,5-difluorophenyl)isoxazolidine-2-carbonyl)cyclobutoxy)-2-fluorobenzonitrile], the IC50 is 21 nM in test [1] and 6 nM in test [2] (setting [4]).
For `CC1(C)OC(=O)N(c2ccc(F)c(OC[C@H]3CC[C@H](C(=O)N4OCC[C@H]4c4cc(F)cc(C#N)c4)CC3)c2)C1=O` [Compound 79, trans-3-((S)-2-(4-((5-(5,5-dimethyl-2,4-dioxooxazolidin-3-yl)-2-fluorophenoxy)methyl)cyclohexane-1-carbonyl)isoxazolidin-3-yl)-5-fluorobenzonitrile], in that order: 20 nM and 9 nM.
For `O=C([C@H]1C[C@@H](n2cc3cc(F)ccc3n2)C1)N1OCC[C@H]1c1cc(F)cc(F)c1` [Compound 110, cis-[(3S)-3-(3,5-difluorophenyl)isoxazolidin-2-yl]-[3-(5-fluoroindazol-2-yl)cyclobutyl]methanone], in that order: 62 nM and 97 nM.
For `N#Cc1cc(F)cc([C@@H]2CCON2C(=O)[C@H]2CC[C@H](COc3ccc(F)c(C#N)c3)CC2)c1` [Compound 44, trans-5-((4-((S)-3-(3-cyano-5-fluorophenyl)isoxazolidine-2-carbonyl)cyclohexyl)methoxy)-2-fluorobenzonitrile], the IC50 in test [1] stood at 27 nM; in test [2] (setting [4]), 5 nM.
Regarding `NC(=O)c1cc(OC[C@H]2CC[C@H](C(=O)N3OCC[C@H]3c3cnccn3)CC2)ccc1F` [Compound 101, trans-2-fluoro-5-[[4-[(3S)-3-pyrazin-2-ylisoxazolidine-2-carbonyl]cyclohexyl]methoxy]benzamide], the IC50 in test [1] was 40 nM; in test [2] (setting [4]), 140 nM.
As to `N#Cc1cc(F)cc(O[C@H]2C[C@H](C(=O)N3OCC[C@H]3c3cc(F)cc(F)c3)C2)c1` [Compound 50, trans-3-(3-((S)-3-(3,5-difluorophenyl)isoxazolidine-2-carbonyl)cyclobutoxy)-5-fluorobenzonitrile], the IC50 came to 25 nM in test [1] and 130 nM in test [2] (setting [4]).
For the compound `N#Cc1cc(F)cc(N[C@H]2C[C@@H](C(=O)N3OCC[C@H]3c3ccc(Cl)cc3)C2)c1` [Compound 25, cis-3-((3-((S)-3-(4-chlorophenyl)isoxazolidine-2-carbonyl)cyclobutyl)amino)-5-fluorobenzonitrile], the concentration for half-maximal inhibition (IC50) in test [1] stood at 64 nM; in test [2] (setting [4]) it was 420 nM.
As to `NC(=O)c1cc(OCC2CCC(C(=O)N3OCC[C@H]3c3cc(F)cc(F)c3)C2)ncn1` (single isomer, unassigned; stereoisomer 3) [Compound 120], the IC50 in test [1] amounted to 32 nM; in test [2] (setting [3]), 336 nM.
For the compound `NC(=O)c1cc(OC[C@H]2CC[C@@H](C(=O)N3OCC[C@H]3c3cc(F)cc(F)c3)CC2)ncn1` [Compound 54, cis-6-((4-((S)-3-(3,5-difluorophenyl)isoxazolidine-2-carbonyl)cyclohexyl)methoxy)pyrimidine-4-carboxamide], the results for the IC50 in test [1] and in test [2] (setting [4]) were 80 nM and 364 nM, respectively.
On to `N#Cc1cc(F)cc([C@@H]2CCON2C(=O)C2CCC(COc3cc(C(N)=O)ncn3)C2)c1` (single isomer, unassigned) [Compound 115], for which the IC50 is 53 nM in test [1] and 842 nM in test [2] (setting [3]).
Turning to `Cc1ccc(OC[C@H]2CC[C@H](C(=O)N3OCC[C@H]3c3cc(F)cc(F)c3)CC2)cc1C(N)=O` [Compound 86, trans-5-((4-((S)-3-(3,5-difluorophenyl)isoxazolidine-2-carbonyl)cyclohexyl)methoxy)-2-methylbenzamide], the IC50 in test [1] came out at 22 nM; in test [2] (setting [4]), 10 nM.
For `N#Cc1cc(F)cc(OC[C@H]2CC[C@@H](C(=O)N3OCC[C@H]3c3cc(F)cc(F)c3)CC2)c1` [Compound 53, cis-3-((4-((S)-3-(3,5-difluorophenyl)isoxazolidine-2-carbonyl)cyclohexyl)methoxy)-5-fluorobenzonitrile], in that order: 18 nM and 17 nM.
For `CC1(C)OC(=O)N(c2ccc(Cl)c(OC[C@H]3CC[C@H](C(=O)N4OCC[C@H]4c4cc(F)cc(F)c4)CC3)c2)C1=O` [Compound 57, trans-3-(4-chloro-3-((4-((S)-3-(3,5-difluorophenyl)isoxazolidine-2-carbonyl)cyclohexyl)methoxy)phenyl)-5,5-dimethyloxazolidine-2,4-dione], in that order: 38 nM and 37 nM.
For `N#Cc1cc(F)cc(N[C@H]2C[C@@H](C(=O)N3OCC[C@H]3c3cncc(F)c3)C2)c1` [Compound 36, cis-3-fluoro-5-((3-((S)-3-(5-fluoropyridin-3-yl)isoxazolidine-2-carbonyl)cyclobutyl)amino)benzonitrile], in that order: 42 nM and 98 nM.
Regarding `N#Cc1ccnc(N[C@H]2C[C@@H](C(=O)N3OCC[C@H]3c3cccc(F)c3)C2)n1` [Compound 16, cis-2-((3-((S)-3-(3-fluorophenyl)isoxazolidine-2-carbonyl)cyclobutyl)amino)pyrimidine-4-carbonitrile], the IC50 in test [1] turned out to be 24 nM; in test [2] (setting [4]), 123 nM.
Turning to `N#Cc1cc(F)cc([C@@H]2CCON2C(=O)[C@H]2C[C@@H](Nc3ccc(F)c(C#N)c3)C2)c1` [Compound 32, cis-5-((3-((S)-3-(3-cyano-5-fluorophenyl)isoxazolidine-2-carbonyl)cyclobutyl)amino)-2-fluorobenzonitrile], the IC50 stood at 28 nM in test [1] and 50 nM in test [2] (setting [4]).
For `O=C([C@H]1C[C@@H](n2ccc3cc(F)ccc32)C1)N1OCC[C@H]1c1cc(F)cc(F)c1` [Compound 108, cis-[(3S)-3-(3,5-difluorophenyl)isoxazolidin-2-yl]-[3-(5-fluoroindol-1-yl)cyclobutyl]methanone], in that order: 26 nM and 94 nM.
For `Cn1ccn(-c2ccc(OC[C@H]3CC[C@H](C(=O)N4OCC[C@H]4c4cc(F)cc(C#N)c4)CC3)c(F)c2)c1=O` [Compound 78, trans-3-fluoro-5-((S)-2-(4-((2-fluoro-4-(3-methyl-2-oxo-2,3-dihydro-1H-imidazol-1-yl)phenoxy)methyl)cyclohexane-1-carbonyl)isoxazolidin-3-yl)benzonitrile], in that order: 43 nM and 9 nM.
Consider `CN1CC(=O)N(c2ccc(Cl)c(OC[C@H]3CC[C@H](C(=O)N4OCC[C@H]4c4cc(F)cc(C#N)c4)CC3)c2)C1=O` [Compound 80, trans-3-((S)-2-(4-((2-chloro-5-(3-methyl-2,5-dioxoimidazolidin-1-yl)phenoxy)methyl)cyclohexane-1-carbonyl)isoxazolidin-3-yl)-5-fluorobenzonitrile], for which the IC50 in test [1] came to 164 nM; in test [2] (setting [4]), 123 nM.
The like results for `COc1cncc([C@@H]2CCON2C(=O)[C@H]2CC[C@H](COc3cccc(C(N)=O)c3)CC2)n1` [Compound 129, trans-3-[[4-[(3S)-3-(6-methoxypyrazin-2-yl)isoxazolidine-2-carbonyl]cyclohexyl]methoxy]benzamide] were, in that order, 11 nM and 28 nM.
The like results for `N#Cc1cc(N[C@H]2C[C@@H](C(=O)N3OCC[C@H]3c3ccc(Cl)cc3)C2)ncn1` [Compound 23, cis-6-((3-((S)-3-(4-chlorophenyl)isoxazolidine-2-carbonyl)cyclobutyl)amino)pyrimidine-4-carbonitrile] were, in that order, 44 nM and 234 nM.
For the compound `NC(=O)c1cc(OCC2CCCC(C(=O)N3OCC[C@H]3c3cc(F)cc(F)c3)CC2)ncn1` (single isomer, unassigned; stereoisomer 4) [Compound 125], the IC50 in test [1] was 39 nM; in test [2] (setting [3]), 347 nM.
Take `C[C@]1(C(=O)N2OCC[C@H]2c2cc(F)cc(F)c2)C[C@@H](Nc2c(Cl)ncnc2C(N)=O)C1` [Compound 10, cis-6-chloro-5-((3-((S)-3-(3,5-difluorophenyl)isoxazolidine-2-carbonyl)-3-methylcyclobutyl)amino)pyrimidine-4-carboxamide]: the figures for the IC50 in test [1] and in test [2] (setting [4]) were 62 nM and 364 nM, respectively.
The like results for `NC(=O)c1ccc(F)c(OC[C@H]2CC[C@H](C(=O)N3OCC[C@H]3c3cnccn3)CC2)c1` [Compound 111, trans-4-fluoro-3-[[4-[(3S)-3-pyrazin-2-ylisoxazolidine-2-carbonyl]cyclohexyl]methoxy]benzamide] were, in that order, 48 nM and 153 nM.
